In patent publication US3985758A, “1,4-Dihydropyridine derivatives” (Yamanouchi Pharmaceutical Co., Ltd., priority 1973, dated 1976):
Converted amounts (≈) assume the structure as drawn. Structures can show the parent of a compound that is named as a salt. Where two headings read alike, the source gives them in different places.

Experiments:
[1] = Solubility in water at 25° C; type: physicochemical
in vivo = conditions: mouse, in vivo, iv
Description: LD50 was determined by using mice.
2. Acute toxicity in mice
Male ICR weighing 25 to 32 g were used. The test compounds were injected into tail vein and LD 50 values were determined.

[2] = tested on: vertebral and femoral blood flow; experiment: Vertebral and femoral blood flow in anesthetized dogs; type: in vivo, mongrel dog; conditions: 0.01 mg/kg i.v. (0.01 or 0.03 mg/kg); for Blood pressure change (Δ mmHg): femoral artery; for Separation ratio (percent increase of vertebral blood flow / that of femoral blood flow): significance vs SKF 24260
Description: Vertebral and femoral blood flow in anesthetized dogs.
Mongrel dogs of both sexes weighing from 12 to 27 kg were anesthetized with sodium pentobarbitol (30 mg/kg i.v.). In all experiments, trachea was cannulated and the animals were artificially ventilated with room air. Blood pressure in cannulated femoral artery was measured by means of a pressure transducer (Nihon Kohden, MPU 0.5). Vertebral and femoral blood flow were measured by a noncannulating electromagnetic flowmeter (Nihon Kohden, MF-25) positioned around the vessels. Recordings were made on an ink-writing polygraph (Nihon Kohden, RM-150 or RM-85). The test compounds were injected at a dose of 0.01 mg/kg into femoral vein.

[3] = compounds of the present invention, 25° C
[4] = compounds of the present invention, 25° C, at the given pH, read-out: Solubility

In the case of `CC1=C(C(=O)OCCN(C)Cc2ccccc2)C(c2ccccc2[N+](=O)[O-])C(C(=O)OC(C)C)=C(C)N1` (stereo not drawn) [Example 4, 2,6-dimethyl-4-(2'-nitrophenyl)-1,4-dihydropyridine-3,5-dicarboxylic acid 3-isopropylester-5-β-(N-benzyl-N-methylamino)ethyl ester], the “pH (of solubility determination)” value [1, 3] is reported as 4.10 and the solubility [1, 4] is reported as 3.2 mg/mL (≈ 6300 µM).

For `CC1=C(C(=O)OCCCN(C)Cc2ccccc2)C(c2cccc([N+](=O)[O-])c2)C(C(=O)OC(C)C)=C(C)N1` (stereo not shown) [2,6-dimethyl-4-(3'-nitrophenyl)-1,4-dihydropyridine-3,5-dicarboxylic acid 3-isopropylester-5-γ-(N-benzyl-N-methylamino)propyl ester], the LD50 (in vivo) was 10 mg/kg.

In the case of `CCOC(=O)C1=C(C)NC(C)=C(C(=O)OCCN(C)Cc2ccccc2)C1c1cccc([N+](=O)[O-])c1` (stereo not drawn) [Example 6, 2,6-dimethyl-4-(3'-nitrophenyl)-1,4-dihydropyridine-3,5-dicarboxylic acid 3-ethylester-5-β-(N-benzyl-N-methylamino)ethyl ester], the “pH (of solubility determination)” value [1, 3] is reported as 4.20 and the solubility [1, 4] is reported as 2.9 mg/mL (≈ 5880 µM).

With `CCOC(=O)C1=C(C)NC(C)=C(C(=O)OCCN(C)Cc2ccc(OC)cc2)C1c1cccc([N+](=O)[O-])c1` (stereo not shown) [R5=C2H5O, A=CH2CH2, R3=drawing 12, R4=CH3] the LD50 (in vivo) was 10 mg/kg.

In the case of `CC1=C(C(=O)OCCN(C)Cc2ccccc2)C(c2cccc([N+](=O)[O-])c2)C(C(=O)OC(C)C)=C(C)N1` (stereo not drawn) [R5=drawing 11, A=CH2CH2, R3=drawing 10, R4=CH3, 2,6-Dimethyl-4-(3'-nitrophenyl)-1,4-dihydropyridine-3,5-dicarboxylic acid 3-β-(N-benzyl-N-methylamino)ethyl ester 5-isopropyl ester], the LD50 (in vivo) is reported as 15 mg/kg.

For `COC(=O)C1=C(C)NC(C)=C(C(=O)OCCN(C)Cc2ccccc2)C1c1ccccc1C(F)(F)F` (stereo not drawn) [Example 24, 2,6-dimethyl-4-(o-trifluoromethyl-phenyl)-1,4-dihydropyridine-3,5-dicarboxylic acid 3-β-(N-benzyl-N-methylamino)ethyl ester 5-methyl ester hydrochloride], the “pH (of solubility determination)” value [1, 3] was 3.91, the solubility [1, 4] was 2.3 mg/mL and the “Femoral blood flow (FBF %)” value [2] was 67 ± 10.5%. For the same compound, the “Vertebral blood flow (VBF Δ %)” value [2] was 119 ± 20.4 Δ %, the “Blood pressure change (Δ mmHg)” value [2] was -28 ± 4.9 Δ mmHg and the “Separation ratio (percent increase of vertebral blood flow / that of femoral blood flow)” value [2] was 2.04 ± 0.53. It also gave an LD50 (in vivo) of 23.7 mg/kg.

In the case of `CC1=C(C(=O)OCCN(C)Cc2ccccc2)C(c2cccc([N+](=O)[O-])c2)C(C(=O)OC(C)C)=C(C)N1` (stereo not drawn) [Example 1, 2,6-dimethyl-4-(3'-nitrophenyl)-1,4-dihydropyridine-3,5-dicarboxylic acid-3-isopropylester-5-β-(N-benzyl-N-methylamino)-ethyl ester hydrochloride], the “pH (of solubility determination)” value [1, 3] is reported as 4.12 and the solubility [1, 4] is reported as 3.1 mg/mL.

`CCOC(=O)C1=C(C)NC(C)=C(C(=O)OCCN(C)Cc2ccc(Cl)cc2)C1c1cccc([N+](=O)[O-])c1` (stereo not shown) [R5=C2H5O, A=CH2CH2, R3=drawing 13, R4=CH3] gave an LD50 (in vivo) of 12 mg/kg.

`CCN(CCOC(=O)C1=C(C)NC(C)=C(C(=O)OC(C)C)C1c1cccc([N+](=O)[O-])c1)Cc1ccccc1` (stereo not drawn) [R5=drawing 11, A=CH2CH2, R3=drawing 10, R4=C2H5, 2,6-Dimethyl-4-(3'-nitrophenyl)-1,4-dihydropyridine-3,5-dicarboxylic acid 3-β-(N-benzyl-N-ethylamino)ethyl ester 5-isopropyl ester] showed an LD50 (in vivo) of 12 mg/kg.

With “2,6-dimethyl-4-(2'-nitrophenyl)-1,4-dihydropyridine-3,5-dicarboxylic acid bis[β-(N-benzyl-N-methylaminethyl] ester hydrochloride [Example 9]” the “pH (of solubility determination)” value [1, 3] was 3.16 and the solubility ([1]; compounds of the present invention, 25° C, at the given pH) was 2.74%.

Compound `CC(=O)C1=C(C)NC(C)=C(C(=O)OCCN(C)Cc2ccccc2)C1c1cccc([N+](=O)[O-])c1` (stereo not drawn) [R5=CH3, A=CH2CH2, R3=drawing 14, R4=CH3, 3-Acetyl-2,6-dimethyl-4-(3'-nitrophenyl)-1,4-dihydropyridine-5-carboxylic acid 3-β-(N-benzyl-N-methylamino)ethyl ester] has an LD50 (in vivo) of 40 mg/kg.

With `COC(=O)C1=C(C)NC(C)=C(C(=O)OCCN(C)Cc2ccccc2)C1c1ccccc1[N+](=O)[O-]` (stereo not drawn) [Example 36, 2,6-dimethyl-4-(2'-nitrophenyl)-1,4-dihydropyridine-3.5-dicarboxilic acid 3-methyl ester 5-β-(N-benzyl-N-methylamino) ethyl ester hydrochloride] the “Femoral blood flow (FBF %)” value [2] was 83 ± 14.1%, the “Vertebral blood flow (VBF Δ %)” value [2] was 167 ± 31.7 Δ % and the “Blood pressure change (Δ mmHg)” value [2] was -26 ± 5.0 Δ mmHg. For the same compound, the “Separation ratio (percent increase of vertebral blood flow / that of femoral blood flow)” value [2] was 2.21 ± 0.56 and the LD50 (in vivo) was 14 mg/kg.

For `COc1ccc(CN(C)CCOC(=O)C2=C(C)NC(C)=C(C(=O)OCCN(C)Cc3ccc(OC)cc3)C2c2cccc([N+](=O)[O-])c2)cc1` [Example 16, dihydrochloride], the “pH (of solubility determination)” value [1, 3] was 3.20 and the solubility [1, 4] was 25.3 mg/mL.

Compound `CC(=O)C1=C(C)NC(C)=C(C(=O)OCCN(C)Cc2ccc(Cl)cc2)C1c1cccc([N+](=O)[O-])c1` (stereo not drawn) [R5=CH3, A=CH2CH2, R3=drawing 15, R4=CH3, 3-Acetyl-2,6-dimethyl-4-(3'-nitrophenyl)-1,4-dihydropyridine-5-carboxylic acid 3-β-(N-p-chlorobenzyl-N-methylamino)ethyl ester] has an LD50 (in vivo) of 45 mg/kg.

With `COC(=O)C1=C(C)NC(C)=C(C(=O)OC)C1c1ccccc1C#N` [reference compound] the “pH (of solubility determination)” value ([1]; known compounds, 25° C) was 5.80, the solubility ([1]; known compounds, 25° C, at the given pH, read-out: Solubility) was 0.01 mg/mL (≈ 30.6 µM) and the solubility ([1]; known compounds, pH 4.00, 25° C, read-out: Solubility at pH 4.00) was 0.001 mg/mL (≈ 3.06 µM). For the same compound, the “Femoral blood flow (FBF %)” value [2] was 109 ± 28.0%, the “Vertebral blood flow (VBF Δ %)” value [2] was 97 ± 16.0 Δ % and the “Blood pressure change (Δ mmHg)” value [2] was -38 ± 6.0 Δ mmHg. The “Separation ratio (percent increase of vertebral blood flow / that of femoral blood flow)” value [2] was 1.20 ± 0.27 and the LD50 (in vivo) was 7.4 mg/kg.

With `CCOC(=O)C1=C(C)NC(C)=C(C(=O)OCCN(C)Cc2ccc(OC)cc2)C1c1cccc([N+](=O)[O-])c1` (stereo not drawn) [Example 14, 2,6-dimethyl-4-(3'-nitrophenyl)-1,4-dihydropyridine-3,5-dicarboxylic acid 3-ethyl ester 5-β-(N-methyl-N-p-methoxybenzylamino)ethyl ester] the “pH (of solubility determination)” value [1, 3] was 4.17 and the solubility [1, 4] was 1 mg/mL (≈ 1910 µM).

For `CCOC(=O)C1=C(C)NC(C)=C(C(=O)OCCN(C)Cc2ccccc2)C1c1cccc([N+](=O)[O-])c1` (stereo not drawn) [R5=C2H5O, A=CH2CH2, R3=drawing 10, R4=CH3, 2,6-Dimethyl-4-(3'-nitrophenyl)-1,4-dihydropyridine-3,5-dicarboxylic acid 3-β-(N-benzyl-N-methylamino)ethyl ester 5-ethyl ester], the LD50 (in vivo) was 15 mg/kg.
